Reference: patent publication US12071411B2, “Inhibitors of HIF-2α and methods of use thereof” (ARCUS BIOSCIENCES, INC., priority 2021, dated 2024)

Experiments:
[1] = target: T1, Biotin tagged HIF-2α protein containing PAS-B domain (240-350) (Homo sapiens, UniProt Q99814); assay: HIF-2α Scintillation Proximity Assay (SPA) binding assay; settings: 50 nM HIF-2α protein, 25 nM 3H-tracer, 2% DMSO
T1 construct: Biotin tagged HIF-2α protein containing PAS-B domain (240-350) was prepared and purified in-house; made in house
T1 sequence (Q99814 240-350): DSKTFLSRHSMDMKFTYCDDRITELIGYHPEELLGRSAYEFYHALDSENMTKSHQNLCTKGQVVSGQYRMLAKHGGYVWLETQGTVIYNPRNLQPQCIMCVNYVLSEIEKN
Experimental: HIF-2α Scintillation Proximity Assay (SPA) Binding Assay:
Biotin tagged HIF-2α protein containing PAS-B domain (240-350) was prepared and purified in-house.
Compounds solubilized in DMSO were dispensed into a white 384-well polystyrene non-binding flat clear bottom plate (Greiner Bio-One, Cat #781903) using an HP D300 dispenser. Ten microliters of biotinylated HIF-2α protein in buffer (25 mM Tris-HCl, pH 7.4, 150 mM NaCl, 0.15% BSA and 0.001% Tween 20) was added to the compound wells and allowed to incubate for 1 hour at room temperature. Ten microliters of SPA bead mix were added to the wells and incubated for an additional 45 minutes, followed by 10 ul of ^3H-tracer solution. Final assay conditions comprised 50 nM HIF-2α protein, 25 nM radiolabeled tracer and 3 ug beads per well with compounds in 2% DMSO. The plate was read using a MicroBeta Microplate Counter (PerkinElmer) for luminescence detection. The IC50 values of the test compounds were determined from compound dose response curves fitted using a standard four parameter fit equation and are reported in Table 2.

HIF-2α [2] = target: T2, HIF-2α (Homo sapiens, UniProt Q99814); assay: HIF-2α Luciferase Reporter Assay (serum free) in HIF-Luc-786-0 cells; format: cell-based; settings: Opti-MEM, 786-0 reporter cells, 20 hours incubation
T2 sequence (Q99814 whole entry): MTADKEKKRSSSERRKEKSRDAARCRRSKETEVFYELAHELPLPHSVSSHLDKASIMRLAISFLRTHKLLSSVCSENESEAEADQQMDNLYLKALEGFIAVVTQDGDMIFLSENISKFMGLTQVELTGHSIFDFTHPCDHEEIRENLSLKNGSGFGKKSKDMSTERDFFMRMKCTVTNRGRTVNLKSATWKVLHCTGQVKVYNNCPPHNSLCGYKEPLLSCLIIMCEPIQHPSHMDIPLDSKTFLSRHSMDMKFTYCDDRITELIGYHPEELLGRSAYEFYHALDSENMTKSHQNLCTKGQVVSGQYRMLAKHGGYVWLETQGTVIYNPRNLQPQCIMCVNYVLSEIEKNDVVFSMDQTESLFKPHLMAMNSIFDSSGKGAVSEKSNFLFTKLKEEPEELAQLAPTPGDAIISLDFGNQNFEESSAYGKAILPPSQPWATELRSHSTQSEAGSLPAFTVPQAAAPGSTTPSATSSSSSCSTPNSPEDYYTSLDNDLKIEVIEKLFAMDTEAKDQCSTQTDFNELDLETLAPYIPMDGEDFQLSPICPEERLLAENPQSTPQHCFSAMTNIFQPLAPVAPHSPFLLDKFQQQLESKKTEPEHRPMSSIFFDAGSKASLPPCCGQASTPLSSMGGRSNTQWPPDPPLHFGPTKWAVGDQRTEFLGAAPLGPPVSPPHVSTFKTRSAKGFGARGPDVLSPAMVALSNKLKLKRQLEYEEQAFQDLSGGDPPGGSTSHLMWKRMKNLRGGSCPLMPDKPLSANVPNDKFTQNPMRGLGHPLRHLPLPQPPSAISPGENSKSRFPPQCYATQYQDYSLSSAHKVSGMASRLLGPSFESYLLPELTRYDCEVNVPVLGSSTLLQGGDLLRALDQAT
Procedure, shortened: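 786-0 cells stably transduced with HIF luciferase reporter, 20,000 cells/well in serum-free Opti-MEM, compounds (50 uM downward, 1% DMSO) 20 h at 37 °C. ONE-Glo luminescence normalized to DMSO and no-cell controls; IC50 from four-parameter fit.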

HIF-2α [3] = target: T2, HIF-2α; assay: HIF-2α Luciferase Reporter Assay (serum), HRE-luciferase 786-0 cells in 100% human serum; format: cell-based; settings: for IC50: 100% human serum, 786-0 reporter cells, overnight incubation, read-out: Serum Potency; for Serum Shift (approximate): ratio of IC50 in 100% serum to IC50 in serum free conditions
Procedure, shortened: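 786-0 cells stably expressing an HRE-luciferase reporter were plated and rested 3 h. They were then treated overnight at 37 °C with compound diluted in 100% human serum. Serum was replaced with Opti-MEM, ONE-Glo luminescence was read, and IC50 came from a 4-parameter logistic fit.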

Row | IC50 [1] | IC50 (HIF-2α [2]) | IC50 (HIF-2α [3]) | Serum Shift (approximate) (HIF-2α [3]) | SMILES
1 | 0.1 to 1 µM | 0.1 to 1 µM | > 1 µM | 18 | O[C@H]1c2c(C(F)(F)F)nn(CCC3(C(F)(F)F)CC3)c2CCC1(F)F [Example 5, (4S)-5,5-difluoro-3-(trifluoromethyl)-1-[2-[1-(trifluoromethyl)cyclopropyl]ethyl]-6,7-dihydro-4H-indazol-4-ol]
2 | 0.1 to 1 µM | 0.1 to 1 µM | > 1 µM | 6 | O[C@H]1c2c(C(F)(F)F)nn(CC3CC3(F)F)c2CCC1(F)F (single isomer, unassigned) [23/24 DIAST-1]
3 | < 0.1 µM | 0.1 to 1 µM | 0.1 to 1 µM | 8 | CC(CCn1nc(C(F)(F)F)c2c1CCC(F)(F)[C@H]2O)C(F)(F)F (stereo partly drawn) [Example 38, (4S)-5,5-difluoro-3-(trifluoromethyl)-1-(4,4,4-trifluoro-3-methylbutyl)-6,7-dihydro-4H-indazol-4-ol]
4 | < 0.1 µM | < 0.1 µM | 0.1 to 1 µM | 12 | O[C@H]1c2c(C(F)(F)F)nn(CCCC(F)(F)F)c2CCC1(F)F [Example 41, (4S)-5,5-difluoro-1-(4,4,4-trifluorobutyl)-3-(trifluoromethyl)-6,7-dihydro-4H-indazol-4-ol]
5 | > 1 µM | > 1 µM | > 1 µM | 3 | O[C@H]1c2c(C(F)(F)F)nn(CCOC(F)(F)F)c2CCC1(F)F [Example 60, (4S)-5,5-difluoro-1-[2-(trifluoromethoxy)ethyl]-3-(trifluoromethyl)-6,7-dihydro-4H-indazol-4-ol]
6 | 0.1 to 1 µM | 0.1 to 1 µM | > 1 µM | 6 | O[C@H]1c2c(C(F)(F)F)nn(CCC3CC(F)(F)C3)c2CCC1(F)F [Example 44, (4S)-1-[2-(3,3-difluorocyclobutyl)ethyl]-5,5-difluoro-3-(trifluoromethyl)-6,7-dihydro-4H-indazol-4-ol]
7 | 0.1 to 1 µM | 0.1 to 1 µM | > 1 µM | 10 | O[C@H]1c2c(C(F)(F)F)nn(CCC3CC3)c2CCC1(F)F [Example 22, (4S)-1-(2-cyclopropylethyl)-5,5-difluoro-3-(trifluoromethyl)-4,5,6,7-tetrahydro-1H-indazol-4-ol]
8 | 0.1 to 1 µM | 0.1 to 1 µM | > 1 µM | 6 | CS(=O)(=O)CCn1nc(C(F)(F)F)c2c1CCC(F)(F)[C@H]2O [Example 42, (4S)-5,5-difluoro-1-(2-methylsulfonylethyl)-3-(trifluoromethyl)-6,7-dihydro-4H-indazol-4-ol]
9 | 0.1 to 1 µM | 0.1 to 1 µM | > 1 µM | 10 | O[C@H]1c2c(C(F)(F)F)nn(CC3CC3(F)F)c2CCC1(F)F (single isomer, unassigned) [23/24 DIAST-2]
10 | 0.1 to 1 µM | 0.1 to 1 µM | > 1 µM | >39 | CCCCn1nc(C(F)(F)F)c2c1CCC(F)(F)[C@H]2O [Example 39, (4S)-1-butyl-5,5-difluoro-3-(trifluoromethyl)-6,7-dihydro-4H-indazol-4-ol]

Row | SMILES | IC50 [1] | IC50 (HIF-2α [2]) | IC50 (HIF-2α [3]) | Serum Shift (approximate) (HIF-2α [3])
11 | CC(C)(C#N)CCn1nc(C(F)(F)F)c2c1CCC(F)(F)[C@H]2O [Example 1, 4-[(4S)-5,5-Difluoro-4-hydroxy-3-(trifluoromethyl)-6,7-dihydro-4H-indazol-1-yl]-2,2-dimethylbutanenitrile] | 0.1 to 1 µM | > 1 µM | > 1 µM | 2
12 | O[C@H]1c2c(C(F)(F)F)nn(CC3CC(F)(F)C3)c2CCC1(F)F [Example 2, (4S)-1-[(3,3-difluorocyclobutyl)methyl]-5,5-difluoro-3-(trifluoromethyl)-6,7-dihydro-4H-indazol-4-ol] | 0.1 to 1 µM | 0.1 to 1 µM | > 1 µM | 13
